Experimental data as given in publication PMC11509018, “Evaluation of the Role of Tanshinone I in an In Vitro System of Charcot-Marie-Tooth Disease Type 2N” (International Journal of Molecular Sciences, 2024).

Biological target: T1, AlaRS G102R binding to Nrp1 (Homo sapiens, UniProt P49588, G102R)
T1 construct: expressed in transfected cells
T1 sequence (P49588 1-968 G102R): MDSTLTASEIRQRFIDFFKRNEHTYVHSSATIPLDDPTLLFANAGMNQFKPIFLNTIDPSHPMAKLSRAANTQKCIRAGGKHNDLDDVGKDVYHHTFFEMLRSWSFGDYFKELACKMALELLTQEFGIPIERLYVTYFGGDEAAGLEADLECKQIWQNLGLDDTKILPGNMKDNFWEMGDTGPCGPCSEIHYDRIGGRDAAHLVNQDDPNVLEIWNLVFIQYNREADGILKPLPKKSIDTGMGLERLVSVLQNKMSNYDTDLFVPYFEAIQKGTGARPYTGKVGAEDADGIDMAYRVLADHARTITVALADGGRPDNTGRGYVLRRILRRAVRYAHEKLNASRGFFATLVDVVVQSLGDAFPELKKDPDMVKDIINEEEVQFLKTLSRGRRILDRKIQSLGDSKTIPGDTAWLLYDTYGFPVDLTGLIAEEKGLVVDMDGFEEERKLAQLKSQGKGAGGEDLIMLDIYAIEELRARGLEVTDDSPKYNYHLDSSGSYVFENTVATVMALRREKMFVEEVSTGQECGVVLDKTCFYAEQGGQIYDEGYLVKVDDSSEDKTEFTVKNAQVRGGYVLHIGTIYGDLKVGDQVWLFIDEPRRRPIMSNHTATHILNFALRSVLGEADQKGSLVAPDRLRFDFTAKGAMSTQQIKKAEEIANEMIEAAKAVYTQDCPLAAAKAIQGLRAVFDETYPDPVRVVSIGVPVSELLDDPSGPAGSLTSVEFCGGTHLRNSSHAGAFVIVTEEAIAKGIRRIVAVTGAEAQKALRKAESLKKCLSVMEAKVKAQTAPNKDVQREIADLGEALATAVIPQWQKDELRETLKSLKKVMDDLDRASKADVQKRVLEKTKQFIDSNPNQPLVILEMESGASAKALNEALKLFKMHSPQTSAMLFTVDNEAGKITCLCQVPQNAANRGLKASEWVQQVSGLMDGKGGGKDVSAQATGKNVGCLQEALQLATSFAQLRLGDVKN
Test: Co-IP of HA-AlaRS mutant with Nrp1 in transfected cells
Format: cell-based
Conditions: 20 µM Tanshinone I for 24 h, ImageJ, average of three repeats

With `Cc1coc2c1C(=O)C(=O)c1c-2ccc2c(C)cccc12` [Tanshinone I] the “Mean density band (G102R), relative quantification of AlaRS mutant immunoprecipitated” value was 0.53.
